Test results as given in patent US10947213B1 (Merck Patent GmbH, priority 2015, dated 2021).
Where a name gives a salt, the structure may show the parent alone.

Target: T1, TLR7/NFKb HEK cells (Homo sapiens, UniProt Q9NYK1)
T1 construct: expressed in transfected cells; host or cells: HEK cells (TLR7/NFKb reporter line)
T1 sequence (Q9NYK1 27-1049): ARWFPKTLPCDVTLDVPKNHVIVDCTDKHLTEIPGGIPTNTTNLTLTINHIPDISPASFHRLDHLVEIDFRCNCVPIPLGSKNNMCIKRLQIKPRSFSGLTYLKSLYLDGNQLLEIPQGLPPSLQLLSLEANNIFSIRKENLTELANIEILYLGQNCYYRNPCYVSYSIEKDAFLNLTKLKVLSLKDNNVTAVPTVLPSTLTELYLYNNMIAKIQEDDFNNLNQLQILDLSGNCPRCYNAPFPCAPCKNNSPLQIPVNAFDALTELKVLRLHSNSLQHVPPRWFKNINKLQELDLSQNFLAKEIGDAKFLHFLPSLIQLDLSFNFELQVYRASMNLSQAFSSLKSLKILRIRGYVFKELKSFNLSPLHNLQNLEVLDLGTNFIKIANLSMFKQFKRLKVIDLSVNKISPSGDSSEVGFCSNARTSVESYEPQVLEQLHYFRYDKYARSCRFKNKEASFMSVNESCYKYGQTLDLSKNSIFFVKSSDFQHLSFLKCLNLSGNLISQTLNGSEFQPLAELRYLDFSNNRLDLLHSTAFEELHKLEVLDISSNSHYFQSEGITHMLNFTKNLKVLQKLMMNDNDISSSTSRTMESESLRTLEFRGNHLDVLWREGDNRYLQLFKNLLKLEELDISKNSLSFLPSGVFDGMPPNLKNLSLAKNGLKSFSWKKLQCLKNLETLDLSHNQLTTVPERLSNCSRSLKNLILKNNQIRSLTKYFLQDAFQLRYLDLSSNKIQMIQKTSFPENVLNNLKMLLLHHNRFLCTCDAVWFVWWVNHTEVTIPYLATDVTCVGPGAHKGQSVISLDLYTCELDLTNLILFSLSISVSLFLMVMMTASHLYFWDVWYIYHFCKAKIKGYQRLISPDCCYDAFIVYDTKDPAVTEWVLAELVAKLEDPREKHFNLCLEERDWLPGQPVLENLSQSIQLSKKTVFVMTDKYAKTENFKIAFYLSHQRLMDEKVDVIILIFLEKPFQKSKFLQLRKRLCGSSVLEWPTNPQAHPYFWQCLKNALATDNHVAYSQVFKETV
Assay: HEK Cell Assay (TLR7/NFKb reporter, Steady-Glo luciferase readout)
Type: cell-based
Conditions: 30 min compound preincubation, then R*48 agonist for 5 hours, read-out: Potency
In short: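 Steady-Glo luminescence after 5 h stimulation with R*48 agonist, following 30 min compound preincubation. Assay run in HEK cells carrying a TLR7/NFKb luciferase reporter, plated at 5000 cells/well and grown 24 h at 37° C (10% CO2) before treatment.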

Row | Structure (SMILES) | IC50
1 | CN1CCN(CCNC(=O)C2CCN(c3ccc(C#N)c4ncccc34)CC2)CC1 [Compound 421, 1-(8-Cyano-quinolin-5-yl)-piperidine-4-carboxylic Acid [2-(4-methyl-piperazin-1-yl)-ethyl]-amide] | < 1000 nM
2 | N#Cc1ccc(N2CCC(C(=O)NCCN3CCCC3)CC2)c2cccnc12 [Compound 422, 1-(8-Cyano-quinolin-5-yl)-piperidine-4-carboxylic Acid (2-pyrrolidin-1-yl-ethyl)-amide] | < 1000 nM
3 | N#Cc1ccc(N2CC(N)CC(F)(F)C2)c2cccnc12 (stereo not shown) [Compound 423, 5-(5-Amino-3,3-difluoro-piperidin-1-yl)-quinoline-8-carbonitrile hydrochloride] | < 1000 nM
4 | CN(C)CC(=O)NC1CN(c2ccc(C#N)c3ncccc23)CC(F)(F)C1 (stereo not shown) [Compound 425, N-[1-(8-Cyano-quinolin-5-yl)-5,5-difluoro-piperidin-3-yl]-2-dimethylamino-acetamide] | < 1000 nM
5 | N#Cc1ccc(N2CCC(C(=O)NCCN3CCC(F)(F)CC3)CC2)c2cccnc12 [Compound 427, 1-(8-Cyano-quinolin-5-yl)-piperidine-4-carboxylic Acid [2-(4,4-difluoro-piperidin-1-yl)-ethyl]-amide] | 1000 to 10000 nM
6 | CCN(CC)CCNC(=O)C1CCN(c2ccc(C#N)c3nccnc23)CC1 [Compound 432, 1-(8-Cyano-quinoxalin-5-yl)-piperidine-4-carboxylic acid (2-diethylamino-ethyl)-amide] | < 1000 nM
7 | CN1CCCC1CNC(=O)C1CCN(c2ccc(C#N)c3ncccc23)CC1 (stereo not shown) [Compound 433, 1-(8-Cyano-quinolin-5-yl)-piperidine-4-carboxylic Acid (1-methyl-pyrrolidin-2-ylmethyl)-amide] | < 1000 nM
8 | N#Cc1ccc(N2CCC(C(=O)NC3CCN(CC4CC4)C3)CC2)c2cccnc12 (stereo not shown) [Compound 434, 1-(8-Cyano-quinolin-5-yl)-piperidine-4-carboxylic Acid (1-cyclopropylmethyl-pyrrolidin-3-yl)-amide] | < 1000 nM
9 | CCN1CCC[C@H]1C(=O)NCC1CCN(c2ccc(C#N)c3ncccc23)CC1 [Compound 435, (S)-1-Ethyl-pyrrolidine-2-carboxylic Acid [1-(8-cyano-quinolin-5-yl)-piperidin-4-ylmethyl]-amide] | < 1000 nM
10 | CCN(C)CCNC(=O)C1CCN(c2ccc(C(F)(F)F)c3ncccc23)CC1 [Compound 436, 1-(8-Trifluoromethyl-quinolin-5-yl)-piperidine-4-carboxylic acid [2-(ethyl-methyl-amino)-ethyl]-amide] | < 1000 nM
11 | N#Cc1ccc(N2CCC(C(=O)NCCN3CCC3)CC2)c2cccnc12 [Compound 439, 1-(8-Cyano-quinolin-5-yl)-piperidine-4-carboxylic Acid (2-azetidin-1-yl-ethyl)-amide] | < 1000 nM
12 | N#Cc1ccc(N2CCC(C(=O)NCCN3CCCCC3)CC2)c2nccnc12 [Compound 440, 1-(8-Cyano-quinoxalin-5-yl)-piperidine-4-carboxylic Acid (2-piperidin-1-yl-ethyl)-amide] | < 1000 nM
13 | O=C(NCCN1CCCCC1)C1CCN(c2ccc(C(F)(F)F)c3ncccc23)CC1 [Compound 441, 1-(8-Trifluoromethyl-quinolin-5-yl)-piperidine-4-carboxylic Acid (2-piperidin-1-yl-ethyl)-amide] | < 1000 nM
14 | CN1CCCC1CNC(=O)C1CCN(c2ccc(C(F)(F)F)c3ncccc23)CC1 (stereo not shown) [Compound 442, 1-(8-Trifluoromethyl-quinolin-5-yl)-piperidine-4-carboxylic acid (1-methyl-pyrrolidin-2-ylmethyl)-amide] | < 1000 nM
15 | CCN(CC)CC(=O)NCC1CCN(c2ccc(C(F)(F)F)c3ncccc23)CC1 [Compound 443, 2-Diethylamino-N-[1-(8-trifluoromethyl-quinolin-5-yl)-piperidin-4-ylmethyl]-acetamide] | < 1000 nM
16 | CCN(CC)CCNC(=O)C1CCN(c2ccc(C(F)(F)F)c3ncccc23)CC1 [Compound 446, 1-(8-Trifluoromethyl-quinolin-5-yl)-piperidine-4-carboxylic Acid (2-diethylamino-ethyl)-amide] | < 1000 nM
